Measured values taken from patent publication US10829501B2 (BRISTOL-MYERS SQUIBB COMPANY, priority 2016, dated 2020).

target: ROCK2 (Homo sapiens, UniProt O75116); test: ROCK2 kinase inhibition assay (LABCHIP 3000 Reader, FITC peptide substrate);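 also: rho kinase reaction read by separating phosphorylated from unphosphorylated peptide on chip, with inhibition of kinase activity computed per concentration across a dose-response series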
Sequence (O75116 whole entry, species assumed): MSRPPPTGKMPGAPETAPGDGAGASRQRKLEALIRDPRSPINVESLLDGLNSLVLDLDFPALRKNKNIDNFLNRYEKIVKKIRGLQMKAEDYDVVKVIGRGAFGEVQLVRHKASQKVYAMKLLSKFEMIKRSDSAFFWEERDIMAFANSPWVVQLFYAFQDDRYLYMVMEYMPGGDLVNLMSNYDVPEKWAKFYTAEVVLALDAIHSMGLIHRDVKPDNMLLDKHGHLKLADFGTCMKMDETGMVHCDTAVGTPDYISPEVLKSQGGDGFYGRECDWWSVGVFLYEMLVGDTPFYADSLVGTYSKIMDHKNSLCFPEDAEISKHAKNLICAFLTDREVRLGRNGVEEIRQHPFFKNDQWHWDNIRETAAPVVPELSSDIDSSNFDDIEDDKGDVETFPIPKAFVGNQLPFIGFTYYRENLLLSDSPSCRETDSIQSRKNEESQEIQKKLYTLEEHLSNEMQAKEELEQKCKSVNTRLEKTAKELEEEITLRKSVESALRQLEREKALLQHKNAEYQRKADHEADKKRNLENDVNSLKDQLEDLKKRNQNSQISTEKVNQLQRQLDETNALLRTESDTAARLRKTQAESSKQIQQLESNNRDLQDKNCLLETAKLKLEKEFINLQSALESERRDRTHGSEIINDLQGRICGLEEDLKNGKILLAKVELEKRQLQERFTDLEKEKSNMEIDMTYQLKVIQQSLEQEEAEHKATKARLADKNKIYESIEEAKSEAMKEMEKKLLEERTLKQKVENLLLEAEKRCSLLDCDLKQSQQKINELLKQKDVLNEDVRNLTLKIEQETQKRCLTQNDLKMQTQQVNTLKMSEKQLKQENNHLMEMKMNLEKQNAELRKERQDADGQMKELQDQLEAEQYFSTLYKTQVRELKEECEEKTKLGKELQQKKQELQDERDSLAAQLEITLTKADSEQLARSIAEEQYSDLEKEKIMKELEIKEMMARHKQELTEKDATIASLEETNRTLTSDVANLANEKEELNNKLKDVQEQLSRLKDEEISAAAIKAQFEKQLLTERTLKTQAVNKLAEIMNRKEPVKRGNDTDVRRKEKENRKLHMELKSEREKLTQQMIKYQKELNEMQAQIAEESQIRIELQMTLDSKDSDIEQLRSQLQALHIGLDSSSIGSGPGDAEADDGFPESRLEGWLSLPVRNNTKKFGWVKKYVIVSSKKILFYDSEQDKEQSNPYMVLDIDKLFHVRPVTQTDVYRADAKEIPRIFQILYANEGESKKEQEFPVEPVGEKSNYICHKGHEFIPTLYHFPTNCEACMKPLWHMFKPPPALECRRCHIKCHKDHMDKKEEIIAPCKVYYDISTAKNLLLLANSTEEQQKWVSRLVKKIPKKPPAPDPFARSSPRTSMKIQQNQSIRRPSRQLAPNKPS

SMILES | IC50 [nM]
NC(=O)c1ccccc1O[C@H]1CC2(C[C@H](NC(=O)c3cnn4cc(OC5CCS(=O)(=O)CC5)ccc34)C2)C1 (stereo partly drawn) [Example 28, N-[(aR)-6-(2-carbamoylphenoxy)spiro [3.3]heptan-2-yl]-6-[(1,1-dioxo-1λ^6-thian-4-yl)oxy]pyrazolo [1,5-a]pyridine-3-carboxamide] | < 5
NC(=O)c1ccccc1O[C@H]1CC2(C[C@H](NC(=O)c3cnc4cc(N5CCOCC5)ccn34)C2)C1 (stereo partly drawn) [Example 29, N-[(aR)-6-(2-carbamoylphenoxy)spiro [3.3]heptan-2-yl]-7-(morpholin-4-yl)imidazo[1,2-a]pyridine-3-carboxamide] | 5 to 50
CS(=O)(=O)CCCOc1ccc2c(C(=O)NC3CC4(C3)CC(Oc3ccccc3C(N)=O)C4)cnn2c1C1CC1 [Example 30, N-[(aR)-6-(2-carbamoylphenoxy)spiro [3.3]heptan-2-yl]-7-cyclopropyl-6-(3-methanesulfonylpropoxy) pyrazolo[1,5-a] pyridine-3-carboxamide] | < 5
NC(=O)c1ccccc1O[C@H]1CC2(C[C@H](NC(=O)c3cnn4c(C5CC5)c(OCCO)ccc34)C2)C1 (stereo partly drawn) [Example 31, N-[(aR)-6-(2-carbamoylphenoxy)spiro [3.3]heptan-2-yl]-7-cyclopropyl-6-(2-hydroxyethoxy)pyrazolo[1,5-a]pyridine-3-carboxamide] | 5 to 50
NC(=O)c1ccccc1OC1CC2(CC(NC(=O)c3cnn4c(C5CC5)c(OCCC(F)(F)F)ccc34)C2)C1 [Example 32, N-[(aR)-6-(2-carbamoylphenoxy)spiro [3.3]heptan-2-yl]-7-cyclopropyl-6-(3,3,3-trifluoropropoxy)pyrazolo [1,5-a]pyridine-3-carboxamide] | < 5

Results, then the molecule that gave them:

IC50 [nM] | SMILES
< 5 | NC(=O)c1ccccc1O[C@H]1CC2(C[C@H](NC(=O)c3cnn4cc(OCCC(F)(F)F)ccc34)C2)C1 (stereo partly drawn) [Example 33, N-[(aR)-6-(2-carbamoylphenoxy)spiro [3.3]heptan-2-yl]-6-(3,3,3-trifluoropropoxy) pyrazolo[1,5-a]pyridine-3-carboxamide]
5 to 50 | Cn1cc(-c2ccn3c(C(=O)N[C@H]4CC5(C4)C[C@H](Oc4ccccc4C(N)=O)C5)cnc3c2)cn1 (stereo partly drawn) [Example 34, N-[(aR)-6-(2-carbamoylphenoxy)spiro [3.3]heptan-2-yl]-7-(1-methyl-1H-pyrazol-4-yl)imidazo [1,2-a]pyridine-3-carboxamide]
< 5 | NC(=O)c1ccccc1OC1CC2(CC(NC(=O)c3cnn4c(C5CC5)c(OC5CCS(=O)(=O)CC5)ccc34)C2)C1 [Example 35, N-[(aR)-6-(2-carbamoylphenoxy)spiro [3.3]heptan-2-yl]-7-cyclopropyl-6-[(1,1-dioxo-1λ^6-thian-4-yl)oxy]pyrazolo[1,5-a] pyridine-3-carboxamide]
5 to 50 | CN1CCN(c2ccn3c(C(=O)N[C@H]4CC5(C4)C[C@H](Oc4ccccc4C(N)=O)C5)cnc3c2)CC1 (stereo partly drawn) [Example 36, N-[(aR)-6-(2-carbamoylphenoxy)spiro [3.3]heptan-2-yl]-7-(4-methylpiperazin-1-yl)imidazo[1,2-a] pyridine-3-carboxamdie]
50 to 250 | NC(=O)c1ccccc1O[C@H]1CC2(C[C@H](NC(=O)N3CCc4ccccc43)C2)C1 (stereo partly drawn) [Example 37, N-((aR)-6-(2-carbamoylphenoxy)spiro[3.3]heptan-2-yl)indoline-1-carboxamide]
5 to 50 | COc1ccc2c(c1)CCN2C(=O)N[C@H]1CC2(C1)C[C@H](Oc1ccccc1C(N)=O)C2 (stereo partly drawn) [Example 38, N-[(aR)-6-(2-carbamoylphenoxy)spiro [3.3]heptan-2-yl]-5-methoxy-2,3-dihydro-1H-indole-1-carboxamide]
50 to 250 | CS(=O)(=O)c1ccc2c(c1)CCN2C(=O)N[C@H]1CC2(C1)C[C@H](Oc1ccccc1C(N)=O)C2 (stereo partly drawn) [Example 39, N-[(aR)-6-(2-carbamoylphenoxy)spiro [3.3]heptan-2-yl]-5-methanesulfonyl-2,3-dihydro-1H-indole-1-carboxamide]
